Tests used:
[1] = molecular target: T1, Ubiquitin thioesterase OTUB1 (Homo sapiens, UniProt Q96FW1); test: Destabilization of N-terminal His-6 tagged OTUB1 (40 to 271 residues) (unknown origin) expressed in Escherichia coli BL21 (DE3) cells assessed as reduction in melting temperature at 200 uM measured for 2 hrs in presence of dithiothreitol by SYPRO orange dye based thermal shift assay
[2] = molecular target: T1, Ubiquitin thioesterase OTUB1; test: Inhibition of N-terminal His-6 tagged OTUB1 (40 to 271 residues) (unknown origin) expressed in Escherichia coli BL21 (DE3) cells at 100 nM using Ub-Rho measured after 0.5 to 3 hrs by fluorescence based Plate reader method relative to control; settings: time 0.5-3 hrs, values are per cent of control
[3] = molecular target: T1, Ubiquitin thioesterase OTUB1; test: Inhibition of N-terminal His-6 tagged OTUB1 (40 to 271 residues) (unknown origin) expressed in Escherichia coli BL21 (DE3) cells using Ub-Rho measured after 0.5 to 3 hrs by fluorescence based Plate reader method
[4] = molecular target: T2, Ubiquitin carboxyl-terminal hydrolase 8 (Homo sapiens, UniProt P40818); test: Inhibition of N-terminal His-6 tagged USP8 (734 to 1110 residues) (unknown origin) expressed in Escherichia coli BL21 (DE3) cells measured after 3 hrs by fluorescence based Plate reader method
T2 sequence (P40818 whole entry): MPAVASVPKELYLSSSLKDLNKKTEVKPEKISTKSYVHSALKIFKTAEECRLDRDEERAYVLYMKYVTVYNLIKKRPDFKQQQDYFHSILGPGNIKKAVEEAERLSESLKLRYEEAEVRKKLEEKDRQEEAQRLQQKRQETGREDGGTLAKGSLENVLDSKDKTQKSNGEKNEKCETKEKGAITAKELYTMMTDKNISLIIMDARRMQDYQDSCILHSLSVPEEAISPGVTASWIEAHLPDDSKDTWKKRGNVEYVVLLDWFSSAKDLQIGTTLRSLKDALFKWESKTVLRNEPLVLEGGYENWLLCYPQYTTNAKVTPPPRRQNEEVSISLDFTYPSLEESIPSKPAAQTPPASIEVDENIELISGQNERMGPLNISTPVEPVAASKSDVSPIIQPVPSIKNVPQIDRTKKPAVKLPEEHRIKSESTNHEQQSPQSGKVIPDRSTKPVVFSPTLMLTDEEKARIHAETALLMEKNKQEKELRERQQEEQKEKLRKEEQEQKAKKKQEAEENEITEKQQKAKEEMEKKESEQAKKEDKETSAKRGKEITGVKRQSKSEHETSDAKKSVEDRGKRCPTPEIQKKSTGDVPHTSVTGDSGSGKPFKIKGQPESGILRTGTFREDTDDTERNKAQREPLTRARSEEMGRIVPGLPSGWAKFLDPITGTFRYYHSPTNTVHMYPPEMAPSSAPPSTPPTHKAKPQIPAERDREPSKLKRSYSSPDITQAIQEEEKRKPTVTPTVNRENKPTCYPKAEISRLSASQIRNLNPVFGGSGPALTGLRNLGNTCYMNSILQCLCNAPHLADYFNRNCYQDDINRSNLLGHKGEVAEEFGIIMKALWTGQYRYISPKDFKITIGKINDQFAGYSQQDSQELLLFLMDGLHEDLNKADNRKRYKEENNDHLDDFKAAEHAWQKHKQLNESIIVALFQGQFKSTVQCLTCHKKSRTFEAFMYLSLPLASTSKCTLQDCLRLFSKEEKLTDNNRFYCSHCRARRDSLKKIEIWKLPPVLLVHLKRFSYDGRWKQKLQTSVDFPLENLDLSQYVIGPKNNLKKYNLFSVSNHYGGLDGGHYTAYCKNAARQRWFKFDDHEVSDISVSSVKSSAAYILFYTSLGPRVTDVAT

[5] = molecular target: T3, Ubiquitin carboxyl-terminal hydrolase 2 (Homo sapiens, UniProt O75604); test: Inhibition of USP2 (unknown origin) using Ub-Rho measured after 0.5 to 3 hrs
T3 sequence (O75604 whole entry): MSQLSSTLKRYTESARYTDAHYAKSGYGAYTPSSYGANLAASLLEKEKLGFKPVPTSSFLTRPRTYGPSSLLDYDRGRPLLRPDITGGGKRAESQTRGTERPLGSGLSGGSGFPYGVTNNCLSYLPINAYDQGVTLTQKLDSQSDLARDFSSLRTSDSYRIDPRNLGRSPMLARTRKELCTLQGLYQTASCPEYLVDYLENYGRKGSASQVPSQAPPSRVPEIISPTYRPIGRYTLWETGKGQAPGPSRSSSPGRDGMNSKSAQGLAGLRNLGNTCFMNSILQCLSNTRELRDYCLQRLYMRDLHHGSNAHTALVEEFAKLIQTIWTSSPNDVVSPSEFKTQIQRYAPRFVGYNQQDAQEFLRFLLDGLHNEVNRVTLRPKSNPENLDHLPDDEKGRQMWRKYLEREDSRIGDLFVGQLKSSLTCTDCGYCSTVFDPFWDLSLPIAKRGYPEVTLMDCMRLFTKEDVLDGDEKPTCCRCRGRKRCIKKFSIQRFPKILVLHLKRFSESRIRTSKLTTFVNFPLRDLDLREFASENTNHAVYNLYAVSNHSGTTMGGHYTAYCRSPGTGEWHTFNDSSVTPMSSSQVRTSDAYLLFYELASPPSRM

Ataxin-3 = Ataxin-3 (Homo sapiens, UniProt P54252); test: Inhibition of Ataxin-3 (unknown origin) using Ub-Rho measured after 0.5 to 3 hrs
Sequence of Ataxin-3 (P54252 whole entry): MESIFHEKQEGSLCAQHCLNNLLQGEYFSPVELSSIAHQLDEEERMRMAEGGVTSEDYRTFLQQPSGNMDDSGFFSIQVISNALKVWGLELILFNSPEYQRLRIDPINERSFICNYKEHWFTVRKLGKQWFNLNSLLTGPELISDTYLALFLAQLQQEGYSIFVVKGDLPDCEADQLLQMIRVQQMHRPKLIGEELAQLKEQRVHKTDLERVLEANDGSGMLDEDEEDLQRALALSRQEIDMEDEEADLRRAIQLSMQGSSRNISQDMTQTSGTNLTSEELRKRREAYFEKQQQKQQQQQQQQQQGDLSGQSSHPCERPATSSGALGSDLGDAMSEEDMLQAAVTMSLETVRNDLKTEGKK

EBC-1 = test: Antiproliferative activity against human EBC-1 cells harboring wild type KRAS incubated for 72 hrs by MTT assay; format: functional, cell-based; settings: EBC-1, 72 h
NCI-H23 = test: Antiproliferative activity against human NCI-H23 cells harboring KRAS mutant incubated for 72 hrs by MTT assay; format: functional, cell-based; settings: NCI-H23, 72 h
A549 = test: Antiproliferative activity against human A549 cells harboring KRAS mutant incubated for 72 hrs by MTT assay; format: functional, cell-based; settings: A549, 72 h

T1 sequence (Q96FW1 whole entry, the tested form may be a part): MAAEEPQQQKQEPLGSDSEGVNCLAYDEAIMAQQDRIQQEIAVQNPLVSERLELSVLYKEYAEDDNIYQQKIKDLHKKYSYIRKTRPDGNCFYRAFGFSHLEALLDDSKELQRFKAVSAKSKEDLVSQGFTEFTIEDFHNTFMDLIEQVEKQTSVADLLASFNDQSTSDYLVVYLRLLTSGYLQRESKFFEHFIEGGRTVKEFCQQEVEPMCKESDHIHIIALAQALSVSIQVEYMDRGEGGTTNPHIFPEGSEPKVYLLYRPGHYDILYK

| ΔTm [1] | residual activity [2] | IC50 [3] | IC50 [4] | IC50 [5] | IC50 (NCI-H23) | IC50 (A549) | Compound | IC50 (Ataxin-3) | IC50 (EBC-1) |
| --- | --- | --- | --- | --- | --- | --- | --- | --- | --- |
| 2.5 °C | 7.3% | 0.17 nM | 0.28 nM | 3800 nM | 431 nM | 1000 nM | CN1CC[C@@H](Oc2ccc(F)c(-c3nc4c(o3)C(=O)c3ccccc3C4=O)c2Cl)C1 | > 10000 nM | 172 nM |
| 1 °C | 7.4% | 0.42 nM | 2 nM | > 10000 nM | 423 nM | 1260 nM | CN1CC[C@@H](Oc2ccc(Cl)c(-c3nc4c(o3)C(=O)c3ccccc3C4=O)c2F)C1 | > 10000 nM | 176 nM |
| 1 °C | 13.7% | 7.1 nM | 1.27 nM | 6200 nM | 266 nM | 701 nM | CN1CC[C@@H](Oc2ccc(Cl)c(-c3nc4c(o3)C(=O)c3ccccc3C4=O)c2)C1 | > 10000 nM | 138 nM |
| 1 °C | 18.2% | 1.7 nM | 2.7 nM | 5100 nM | 281 nM | 662 nM | O=C1c2ccccc2C(=O)c2oc(-c3cccnc3)nc21 | > 10000 nM | 122 nM |

Reference: ChEMBL document CHEMBL5108067, “Discovery of Potent OTUB1/USP8 Dual Inhibitors Targeting Proteostasis in Non-Small-Cell Lung Cancer” (J Med Chem, 2022)
